According to PubChem BioAssay AID651973 (The Scripps Research Institute Molecular Screening Center, 2013):
Calls of active or inactive are those of the source. The rule behind the calls is not given here.

Tested on: Cell-based VP16 transactivation luciferase reporter, luminescence
Assay: VP16 transactivation reporter inhibitors, dose response, counter-screen for LRH-1 inverse agonist project, cell-based, luminescence (AID 651973)

Row | SMILES | IC50
1 | CCc1cc(=O)[nH]c(SCC(=O)Nc2ccc3c(c2)OCCO3)n1 | > 35.9 µM (inactive)
2 | COc1ccccc1Oc1nnnn1-c1ccc(C(N)=O)cc1 | > 35.9 µM (inactive)
3 | CCOc1ccc(NC(=O)CSc2nc3[nH]ncc3c(=O)[nH]2)cc1 | > 35.9 µM (inactive)
4 | CC(=O)Nc1ccc(NC(=O)CSc2ccc(-c3ccco3)nn2)cc1 | > 35.9 µM (inactive)
5 | Cc1cc(Br)ccc1NC(=O)CN1C(=O)CCC1=O | > 35.9 µM (inactive)
6 | COc1ccc(OCCNC(=O)C2(C)CCN2Cc2ccc(SC)cc2)cc1 (stereo not drawn) | 28.5 µM (inactive)
7 | CCOc1ccc(NC(=O)COC(=O)COc2cccc3c2OC(C)(C)C3)cc1 | > 35.9 µM (inactive)
8 | Cc1ccn2c(=O)nc(SCC(=O)Nc3ccc4c(c3)OCCO4)nc2c1 | > 35.9 µM (inactive)
9 | O=C(CN1C(=O)NC2(CCCCC2)C1=O)NCCc1c[nH]c2ccccc12 | > 35.9 µM (inactive)
10 | Cc1cccc(CN2C(=O)CSc3ccc(C(=O)NC4CC4)cc32)c1 | 26.3 µM (inactive)
11 | CCc1cc(=O)oc2c(C)c(OCC(=O)NC3CC(C)(C)NC(C)(C)C3)ccc12 | > 35.9 µM (inactive)
12 | Cc1cc(C)c2sc(NC(=O)c3ccc([N+](=O)[O-])o3)nc2c1 | > 35.8 µM (inactive)
13 | Cc1onc(-c2ccccc2Cl)c1C(=O)O/N=C(\N)c1ccc([N+](=O)[O-])o1 | > 35.9 µM (inactive)
14 | CC(O)(c1cccnc1)c1nc(-c2cccc(C#N)c2)cs1 (stereo not drawn) | > 35.9 µM (inactive)
15 | O=C(NCc1cccnc1)c1cccc2c1C(=O)N(C1CCCCC1)C2 | > 35.9 µM (inactive)
16 | COc1cc(C(=O)Nc2ccccc2N2CCN(S(C)(=O)=O)CC2)cc(OC)c1OC | > 35.9 µM (inactive)
17 | COc1cc(OC)cc(C(=O)N[C@H](C(=O)OCC(=O)Nc2ccc3c(c2)OCO3)C(C)C)c1 | > 35.9 µM (inactive)
18 | Cc1onc(-c2ccccc2)c1C(=O)O/N=C(\N)c1ccc([N+](=O)[O-])o1 | > 35.9 µM (inactive)
19 | Cc1ccccc1C(=O)NC1CCN(CC(=O)Nc2ccc(Br)cc2)CC1 | > 35.9 µM (inactive)
20 | CC(C)CC1(C)NC(=O)N(CC(=O)Nc2ccc3c(c2)OCCO3)C1=O (stereo not drawn) | > 35.9 µM (inactive)
21 | COc1ccc(NC(=O)COC(=O)c2c(-c3ccccc3)noc2C)cc1 | > 35.9 µM (inactive)
22 | Cc1ccc(NC(=O)CN2C(=O)NC(C)(CC(C)C)C2=O)c(Br)c1 (stereo not drawn) | > 35.9 µM (inactive)
23 | COc1cc(NC(=O)Cn2ccsc2=N)c(C)cc1[N+](=O)[O-] | > 35.9 µM (inactive)
24 | CCc1cc(=O)oc2c(C)c(OCC(=O)NCCCN3CCCC3=O)ccc12 | > 35.9 µM (inactive)

Row | SMILES | IC50
25 | CC(=O)Nc1ccc(NC(=O)COC(=O)Cc2c[nH]c3ccccc23)cc1 | > 35.9 µM (inactive)
26 | O=C(CN1C(=O)CCC1=O)Nc1ccc(Br)cc1 | > 35.9 µM (inactive)
27 | CCCc1nnc(SCC(=O)Nc2ccc(C(=O)OCC)cc2)o1 | > 35.9 µM (inactive)
28 | CCCc1cc(=O)oc2cc(C)cc(OCC(=O)NC3CC3)c12 | > 35.9 µM (inactive)
29 | Cc1cc(Br)ccc1NC(=O)CSc1nnc(CN2CCOCC2)n1C | > 35.9 µM (inactive)
30 | CC(=O)Nc1ccc(NC(=O)CSc2nnc(NC(=O)C3CC3)s2)cc1 | > 35.9 µM (inactive)
31 | O=C(CSc1nnc(CNC(=O)c2c(F)cccc2F)o1)Nc1ccc2c(c1)OCCO2 | > 35.9 µM (inactive)
32 | CC(=O)Nc1cc(-c2ccc(F)cc2)cn2c(-c3ccc(S(C)(=O)=O)cc3)cnc12 | > 35.9 µM (inactive)
33 | CCCc1nnc(SCC(=O)Nc2ccc(OC)cc2)o1 | > 35.9 µM (inactive)
34 | CCCc1cc(=O)oc2c(C)c(OCC(=O)NCCCn3ccnc3)ccc12 | > 35.9 µM (inactive)
35 | O=C(Nc1ccc(Cc2ccncc2)cc1)c1ccc([N+](=O)[O-])o1 | > 35.9 µM (inactive)
36 | COc1ccc(CCNC(=O)CN2C(=O)NC3(CCCCC3C)C2=O)cc1 (stereo not drawn) | > 35.9 µM (inactive)
37 | COc1ccc(S(=O)(=O)N2CCN(CC(=O)Nc3ccc(C)c(F)c3)CC2)cc1 | > 35.9 µM (inactive)
38 | CCc1cc(=O)oc2c(C)c(OCC(=O)NCCN3CCOCC3)ccc12 | > 35.9 µM (inactive)
39 | COC(=O)c1ccc(NC(=O)CSc2ccc(-c3ccccn3)nn2)cc1 | > 35.9 µM (inactive)
40 | Cc1nnc(SCC(=O)Nc2ccc(Br)cc2)n(N)c1=O | > 35.9 µM (inactive)
41 | O=c1[nH]c(Nc2ccc3c(c2)OCCO3)nnc1Cc1ccccc1 | > 35.9 µM (inactive)
42 | Cc1ccc(-c2nn3c(C)nnc3s2)cc1NC(=O)c1cccs1 | > 35.9 µM (inactive)
43 | CCn1cc(Br)c(C(=O)Nc2ccccc2C(=O)OC)n1 | > 35.9 µM (inactive)
44 | O=C(COc1ccc(S(=O)(=O)N2CCCC2)cc1Cl)Nc1ccc2c(c1)OCO2 | > 35.9 µM (inactive)
45 | COc1ccnc(Oc2ccccc2)c1C(=O)N/C=N/OCc1ccccc1F | 28.2 µM (inactive)
46 | COC(=O)c1ccc(NC(=O)CSc2nc3ncccc3[nH]2)cc1 | > 35.9 µM (inactive)
47 | CC(O)(c1ccc(F)c(F)c1)c1nc(-c2ccc(S(C)(=O)=O)cc2)cs1 (stereo not drawn) | 34.7 µM (inactive)
48 | Cc1cc(Br)ccc1NC(=O)CN1C(=O)C2CC=CCC2C1=O (stereo not drawn) | > 35.9 µM (inactive)
